Measurements taken from ChEMBL document CHEMBL1201862, “PubChem BioAssay data set” (2004).
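Results reflect a 48-hour exposure of cells in 96-well plates to compound at five concentrations. GI50 marks 50% less growth.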 Active and inactive are the calls of the source. Rule as the data show it: active = GI50 up to about 1.1 µM and inactive = higher.

Key:
Experiment in all cases: inhibition of tumour cell growth, NCI panel, 48 h
DLD-1 = tested on: DLD-1
DMS-114 = tested on: DMS-114
DMS-273 = tested on: DMS-273
HOP-18 = tested on: HOP-18
M19-MEL = tested on: M19-MEL
RXF 631 = tested on: RXF 631
SNB-78 = tested on: SNB-78
XF498 = tested on: XF498
KM-20L2 = tested on: KM-20L2

Row | Structure (SMILES) | GI50 (DLD-1) | GI50 (DMS-114) | GI50 (DMS-273) | GI50 (HOP-18) | GI50 (M19-MEL) | GI50 (RXF 631) | GI50 (SNB-78) | GI50 (XF498) | GI50 (KM-20L2)
1 | NCC1(N2CCOCC2)C2CCCC21CNc1ccccc1 (stereo not drawn) | > 100 µM (inactive) | > 100 µM (inactive) | > 100 µM (inactive) | > 100 µM (inactive) | > 100 µM (inactive) | > 100 µM (inactive) | > 100 µM (inactive) | 69.8 µM (inactive) | –
2 | CC1=NN(C(=O)CC(=O)Nc2ccccc2F)C(=O)C1/N=N/c1ccccc1[N+](=O)[O-] (stereo not drawn) | 83 µM (inactive) | 57.9 µM (inactive) | 49.9 µM (inactive) | – | 18.7 µM (inactive) | – | 87.3 µM (inactive) | > 100 µM (inactive) | > 100 µM (inactive)
3 | CN(C)CC1CCC(CN(C)C)C1=O (stereo not drawn) | 2.05 µM (inactive) | 5.92 µM (inactive) | 17.1 µM (inactive) | 18.8 µM (inactive) | 3.43 µM (inactive) | – | 5.83 µM (inactive) | 5.69 µM (inactive) | 17.4 µM (inactive)
4 | CCOC(=O)C(CNc1ccc(O)cc1)NC(=O)c1ccccc1 (stereo not drawn) | > 100 µM (inactive) | > 79.8 µM (inactive) | 65 µM (inactive) | > 100 µM (inactive) | 47 µM (inactive) | – | > 100 µM (inactive) | > 100 µM (inactive) | > 100 µM (inactive)
5 | Cc1c2cc[n+](C)cc2c(C)c2c1oc1ccccc12 | 8.57 µM (inactive) | 1.31 µM (inactive) | 3.57 µM (inactive) | 6.82 µM (inactive) | 2.64 µM (inactive) | – | 4.02 µM (inactive) | – | 9.98 µM (inactive)
6 | NNC(=O)C1CCC(=O)N1S(=O)(=O)c1ccccc1 (stereo not drawn) | > 100 µM (inactive) | > 100 µM (inactive) | > 100 µM (inactive) | – | > 100 µM (inactive) | – | > 100 µM (inactive) | > 100 µM (inactive) | > 100 µM (inactive)
7 | S=c1sc2sc(=S)sc2s1 | 37.1 µM (inactive) | – | > 100 µM (inactive) | > 100 µM (inactive) | 28.6 µM (inactive) | 18.7 µM (inactive) | 54.5 µM (inactive) | – | 70.3 µM (inactive)
8 | CSC1=Nc2ccccc2N=C(c2ccc(Cl)cc2)C1 | 25.9 µM (inactive) | – | – | 0.0877 µM (active) | 36.3 µM (inactive) | – | 52.5 µM (inactive) | 36.5 µM (inactive) | 35.5 µM (inactive)
9 | N#C/C(=C\c1cc(O)c(O)c(O)c1)C(N)=O | > 100 µM (inactive) | > 100 µM (inactive) | > 100 µM (inactive) | – | 45.3 µM (inactive) | > 100 µM (inactive) | > 100 µM (inactive) | > 100 µM (inactive) | 74.1 µM (inactive)
10 | Cn1cc(C(=O)c2ccccc2)c2ccccc2c1=O | > 100 µM (inactive) | > 100 µM (inactive) | > 100 µM (inactive) | – | > 100 µM (inactive) | – | – | > 100 µM (inactive) | –
11 | CC(C)(C)C(=O)/C=C/c1cccc(Oc2ccccc2)c1 | 11.5 µM (inactive) | – | – | 16.6 µM (inactive) | 16.9 µM (inactive) | 28.1 µM (inactive) | 14.2 µM (inactive) | 18.8 µM (inactive) | 14.3 µM (inactive)
12 | CCCCCCCCCCCCCC1CCC(CC)N1 (stereo not drawn) | 14.9 µM (inactive) | 7 µM (inactive) | 14.5 µM (inactive) | 17.1 µM (inactive) | 3.18 µM (inactive) | – | 13 µM (inactive) | – | 13.3 µM (inactive)
13 | CCN1CCC(O)(c2ccccc2)C(C(=O)c2ccccc2)C1 (stereo not drawn) | 19.4 µM (inactive) | 29.9 µM (inactive) | > 94.4 µM (inactive) | 14.7 µM (inactive) | 26.7 µM (inactive) | – | 26.7 µM (inactive) | 16.3 µM (inactive) | 32 µM (inactive)
